Measured values from patent publication US20090325959A1 (priority 2008, published 2009).
Where two headings read alike, the source gives them in different places.

Columns and labels:
ROCK2 = molecular target: T1, ROCK2 (Homo sapiens, UniProt O75116); experiment: Rho kinase inhibition assay (IMAP fluorescence polarization), ROCK2; assay type: biochemical;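 further: kinase reaction started with 10 µM ATP and run 60 min at room temperature, then phosphorylated substrate captured on IMAP beads for 30 min and fluorescence polarization read in mP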
T1 construct: purchased Upstate/Chemicon 14-451
Procedure: (§1) Following the pre-incubation, 10 μM ATP was added to initiate the reaction. After 60 minutes at room temperature, Molecular Devices IMAP™ binding solution was added to bind phosphorylated substrate. After 30 minutes of incubation in the presence of the IMAP™ beads, the fluorescence polarization was read and the ratio was reported as mP. IC50 values for compounds and EC50 values for ATP were calculated using the Prism software from Graphpad.

ROCK1 = molecular target: T2, ROCK1 (Homo sapiens, UniProt Q13464); experiment: Rho kinase inhibition assay (IMAP fluorescence polarization), ROCK1; assay type: biochemical;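 further: kinase reaction run 60 min at room temperature, then phosphorylated substrate captured on IMAP beads for 30 min, with fluorescence polarization read in mP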
T2 construct: purchased Upstate/Chemicon 14-601
Procedure: as §1

[1] = 10 μM ATP, read-out: ROCK2 Ki, Avg

T1 sequence (O75116 11-552 limits assumed): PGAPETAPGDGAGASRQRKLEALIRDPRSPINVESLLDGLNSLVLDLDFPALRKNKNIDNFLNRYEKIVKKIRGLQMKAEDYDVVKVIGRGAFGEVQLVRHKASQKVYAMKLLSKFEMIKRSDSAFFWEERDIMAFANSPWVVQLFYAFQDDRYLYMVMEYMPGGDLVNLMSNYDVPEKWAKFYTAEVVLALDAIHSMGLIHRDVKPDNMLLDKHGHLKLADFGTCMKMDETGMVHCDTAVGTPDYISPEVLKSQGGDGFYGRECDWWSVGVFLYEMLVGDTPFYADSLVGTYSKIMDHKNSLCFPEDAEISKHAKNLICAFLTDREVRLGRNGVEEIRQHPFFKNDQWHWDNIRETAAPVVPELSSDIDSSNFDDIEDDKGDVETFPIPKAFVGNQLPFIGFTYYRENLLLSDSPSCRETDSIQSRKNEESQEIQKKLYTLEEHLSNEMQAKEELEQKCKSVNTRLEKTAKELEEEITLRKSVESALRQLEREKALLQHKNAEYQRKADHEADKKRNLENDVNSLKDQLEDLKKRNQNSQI
T2 sequence (Q13464 17-535 limits assumed): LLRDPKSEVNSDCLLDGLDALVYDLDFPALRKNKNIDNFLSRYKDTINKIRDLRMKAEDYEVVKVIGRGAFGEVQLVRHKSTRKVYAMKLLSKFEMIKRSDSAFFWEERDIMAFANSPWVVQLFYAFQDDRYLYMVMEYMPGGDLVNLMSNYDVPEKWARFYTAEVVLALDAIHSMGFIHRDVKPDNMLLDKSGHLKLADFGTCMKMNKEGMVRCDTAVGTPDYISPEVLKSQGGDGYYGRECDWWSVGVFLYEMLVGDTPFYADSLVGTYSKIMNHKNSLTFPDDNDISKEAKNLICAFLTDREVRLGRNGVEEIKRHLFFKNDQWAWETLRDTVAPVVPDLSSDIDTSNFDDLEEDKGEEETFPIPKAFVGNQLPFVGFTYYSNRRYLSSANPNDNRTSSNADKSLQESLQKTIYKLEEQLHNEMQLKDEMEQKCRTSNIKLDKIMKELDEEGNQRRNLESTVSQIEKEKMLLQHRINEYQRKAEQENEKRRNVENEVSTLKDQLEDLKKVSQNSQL

Structure (SMILES) | Ki (ROCK2; [1]) | Ki (ROCK1; Avg, 10 μM ATP) | Ki (ROCK2; average Ki, read-out: ROCK2 Ki) | Ki (ROCK1; average Ki)
C[C@@H](O)COc1cccc(CN2CCC[C@H](Nc3ccc4[nH]ncc4c3)C2)c1 [Compound 1.118, (R)-1-(3-(((S)-3-(1H-indazol-5-ylamino)piperidin-1-yl)methyl)phenoxy)propan-2-ol] | 81.7 nM | 462 nM | – | –
c1c[nH]c(CN2CCC[C@H](Nc3ccc4[nH]ncc4c3)C2)n1 [Compound 1.256, (S)-N-(1-((1H-imidazol-2-yl)methyl)piperidin-3-yl)-1H-indazol-5-amine] | 85.5 nM | 700 nM | – | –
c1cc(N2CCCC2)ccc1CN1CCC[C@@H](Nc2ccc3[nH]ncc3c2)C1 [Compound 1.248, (R)-N-(1-(4-(pyrrolidin-1-yl)benzyl)piperidin-3-yl)-1H-indazol-5-amine] | 891 nM | 2350 nM | – | –
COc1ccc(CN2CC[C@@H](Nc3cccc4cnccc34)C2)cc1NS(C)(=O)=O [Compound 2.098, (R)-N-(5-((3-(isoquinolin-5-ylamino)pyrrolidin-1-yl)methyl)-2-methoxyphenyl)methanesulfonamide] | 73.5 nM | 382 nM | – | –
OCCOc1ccc(CN2CCC[C@H](Nc3ccc4[nH]ncc4c3)C2)cc1 [Compound 1.228] | 140 nM | 1880 nM | – | –
CC(=O)NCc1cccc(CN2CC[C@@H](Nc3cccc4cnccc34)C2)c1 [Compound 2.063, (R)-N-(3-((3-(isoquinolin-5-ylamino)pyrrolidin-1-yl)methyl)benzyl)acetamide] | 73.9 nM | 206 nM | – | –
NCc1ccc(CN2CCC[C@H](Nc3ccc4[nH]ncc4c3)C2)cc1 [Compound 1.201, (S)-N-(1-(4-(aminomethyl)benzyl)piperidin-3-yl)-1H-indazol-5-amine] | 230 nM | 1590 nM | – | –
O=S(=O)(Nc1cccc(CN2CC[C@@H](Nc3cccc4cnccc34)C2)c1)N1CCCCC1 [Compound 2.069, (R)-N-(3-((3-(isoquinolin-5-ylamino)pyrrolidin-1-yl)methyl)phenyl)piperidine-1-sulfonamide] | 2.4 nM | 16.7 nM | 2.4 nM | 16.7 nM
OC[C@@H](O)COc1cccc(CN2CCC[C@H](Nc3ccc4[nH]ncc4c3)C2)c1 [Compound 1.117, (R)-3-(3-(((S)-3-(1H-indazol-5-ylamino)piperidin-1-yl)methyl)phenoxy)propane-1,2-diol] | 35.8 nM | 208 nM | – | –
OCC1COc2ccc(CN3CCC[C@@H](Nc4ccc5[nH]ncc5c4)C3)cc2O1 (stereo partly drawn) [Compound 1.264, (7-(((R)-3-(1H-indazol-5-ylamino)piperidin-1-yl)methyl)-2,3-dihydrobenzo[b][1,4]dioxin-2-yl)methanol] | 59.4 nM | 494 nM | – | –
CC(=O)NCc1cccc(CN2CCC[C@@H](Nc3ccc4[nH]ncc4c3)C2)c1 [Compound 1.194] | 20.2 nM | 176 nM | – | –
O=C(Nc1cccc(CN2CCC[C@@H](Nc3ccc4[nH]ncc4c3)C2)c1)N1CCCC1 [Compound 1.266, (R)-N-(3-((3-(1H-indazol-5-ylamino)piperidin-1-yl)methyl)phenyl)pyrrolidine-1-carboxamide] | 17.1 nM | 53.8 nM | – | –
CC1(C)OC[C@H](COc2cccc(CN3CCC[C@H](Nc4ccc5[nH]ncc5c4)C3)c2)O1 [Compound 1.214, N-((S)-1-(3-(((S)-2,2-dimethyl-1,3-dioxolan-4-yl)methoxy)benzyl)piperidin-3-yl)-1H-indazol-5-amine] | 143 nM | 546 nM | – | –
Clc1cccc(CN2CCC[C@@H](Nc3ccc4[nH]ncc4c3)C2)c1 [Compound 1.191, (R)-N-(1-(3-chlorobenzyl)piperidin-3-yl)-1H-indazol-5-amine] | 33.4 nM | 147 nM | – | –
c1cnc(CN2CC[C@@H](Nc3cccc4cnccc34)C2)nc1 [Compound 2.085, (R)-N-(1-(pyrimidin-2-ylmethyl)pyrrolidin-3-yl)isoquinolin-5-amine] | 812 nM | 2390 nM | – | –
c1cc(N[C@@H]2CCN(Cc3nc4ccccc4[nH]3)C2)c2ccncc2c1 [Compound 2.074, (R)-N-(1-((1H-benzo[d]imidazol-2-yl)methyl)pyrrolidin-3-yl)isoquinolin-5-amine] | 36.4 nM | 133 nM | – | –
c1cc2c(cc1CN1CCC[C@@H](Nc3ccc4[nH]ncc4c3)C1)OCCO2 [Compound 1.177, (R)-N-(1-((2,3-dihydrobenzo[b][1,4]dioxin-6-yl)methyl)piperidin-3-yl)-1H-indazol-5-amine] | 18.2 nM | 156 nM | – | –
[O-][n+]1ccc2c(N[C@@H]3CCN(Cc4cccc(OCCO)c4)C3)cccc2c1 [Compound 2.081, (R)-5-(1-(3-(2-hydroxyethoxy)benzyl)pyrrolidin-3-ylamino)isoquinoline 2-oxide] | 1110 nM | 1450 nM | – | –
CN(c1cccc(CN2CCC[C@H](Nc3ccc4[nH]ncc4c3)C2)c1)S(C)(=O)=O [Compound 1.198, (S)-N-(3-((3-(1H-indazol-5-ylamino)piperidin-1-yl)methyl)phenyl)-N-methylmethanesulfonamide] | 24.7 nM | 585 nM | – | –
N#Cc1cccc(CN2CCC(Nc3cccc4cnccc34)C2)c1 (stereo not drawn) [Compound 2.007, 3-((3-(isoquinolin-5-ylamino)pyrrolidin-1-yl)methyl)benzonitrile] | 179 nM | 390 nM | – | –

Structure (SMILES) | Ki (ROCK2; [1]) | Ki (ROCK1; Avg, 10 μM ATP) | Ki (ROCK2; average Ki, read-out: ROCK2 Ki) | Ki (ROCK1; average Ki)
Cc1cccc(CN2CCC[C@@H](Nc3ccc4[nH]ncc4c3)C2)c1C [Compound 1.172, (R)-N-(1-(2,3-dimethylbenzyl)piperidin-3-yl)-1H-indazol-5-amine] | 20.5 nM | 103 nM | – | –
CC(=O)NCCOc1cccc(CN2CCC[C@H](Nc3ccc4[nH]ncc4c3)C2)c1 [Compound 1.218, (S)-N-(2-(3-((3-(1H-indazol-5-ylamino)piperidin-1-yl)methyl)phenoxy)ethyl)acetamide] | 30.7 nM | 402 nM | – | –
CC(C)(C)OC(=O)NCc1ccc(CN2CCC[C@H](Nc3ccc4[nH]ncc4c3)C2)cc1 [Compound 1.199, (S)-tert-butyl 4-((3-(1H-indazol-5-ylamino)piperidin-1-yl)methyl)benzylcarbamate] | 213 nM | 1860 nM | – | –
CS(=O)(=O)c1ccc(CN2CCC[C@H](Nc3ccc4[nH]ncc4c3)C2)cc1 [Compound 1.181, (S)-N-(1-(4-(methylsulfonyl)benzyl)piperidin-3-yl)-1H-indazol-5-amine] | 32.8 nM | 568 nM | – | –
c1cc(N[C@@H]2CCN(Cc3ccsc3)C2)c2ccncc2c1 [Compound 2.088, (R)-N-(1-(thiophen-3-ylmethyl)pyrrolidin-3-yl)isoquinolin-5-amine] | 13.6 nM | 38.7 nM | – | –
O=C(OCCOc1cccc(CN2CCC[C@@H](Nc3ccc4[nH]ncc4c3)C2)c1)c1ccccc1 [Compound 1.225, (R)-2-(3-((3-(1H-indazol-5-ylamino)piperidin-1-yl)methyl)phenoxy)ethyl benzoate] | 189 nM | 605 nM | – | –
CS(=O)(=O)Cc1cccc(CN2CCC[C@@H](Nc3ccc4[nH]ncc4c3)C2)c1 [Compound 1.139, (R)-N-(1-(3-(methylsuifonylmethyl)benzyl)piperidin-3-yl)-1H-indazol-5-amine] | 23.2 nM | 200 nM | – | –
COc1ccc(CN2CC[C@@H](Nc3ccc4[nH]ncc4c3)C2)cc1 [Compound 1.245, (R)-N-(1-(4-methoxybenzyl)pyrrolidin-3-yl)-1H-indazol-5-amine] | 49.5 nM | 199 nM | – | –
Cc1ccc(CN2CCC[C@@H](Nc3ccc4[nH]ncc4c3)C2)cc1OCC(N)=O [Compound 1.281] | 7.4 nM | 71.8 nM | 7.4 nM | 71.8 nM
Clc1ccc(CN2CC[C@@H](Nc3cccc4cnccc34)C2)cc1Cl [Compound 2.048, (R)-N-(1-(3,4-dichlorobenzyl)pyrrolidin-3-yl)isoquinolin-5-amine] | 34.6 nM | 71.5 nM | – | –
CS(=O)(=O)c1ccc(CN2CC[C@@H](Nc3ccc4[nH]ncc4c3)C2)cc1 [Compound 1.244, (R)-N-(1-(4-(methylsulfonyl)benzyl)pyrrolidin-3-yl)-1H-indazol-5-amine] | 139 nM | 683 nM | – | –
CNC(=O)Nc1cccc(CN2CCC[C@@H](Nc3ccc4[nH]ncc4c3)C2)c1 [Compound 1.265, (R)-1-(3-((3-(1H-indazol-5-ylamino)piperidin-1-yl)methyl)phenyl)-3-methylurea] | 21.6 nM | 162 nM | – | –
Cc1nc(CN2CCC[C@H](Nc3ccc4[nH]ncc4c3)C2)c(C)o1 [Compound 1.279, (S)-N-(1-((2,5-dimethyloxazol-4-yl)methyl)piperidin-3-yl)-1H-indazol-5-amine] | 34.2 nM | 456 nM | – | –
Cc1cccc(CN2CCC[C@@H](Nc3ccc4[nH]ncc4c3)C2)c1 [Compound 1.192, (R)-N-(1-(3-methylbenzyl)piperidin-3-yl)-1H-indazol-5-amine] | 37.7 nM | 158 nM | – | –
Cc1ccc(CN2CC[C@@H](Nc3cccc4cnccc34)C2)cc1NS(C)(=O)=O [Compound 2.076] | 2.4 nM | 8 nM | 2.4 nM | 8 nM
Fc1ccc(CN2CC[C@@H](Nc3cccc4cnccc34)C2)cc1F [Compound 2.062, (R)-N-(1-(3,4-difluorobenzyl)pyrrolidin-3-yl)isoquinolin-5-amine] | 30.5 nM | 63.4 nM | – | –
c1cc(CN2CCC[C@@H](Nc3ccc4[nH]ncc4c3)C2)cc(C2CC2)c1 [Compound 1.202, (R)-N-(1-(3-cyclopropylbenzyl)piperidin-3-yl)-1H-indazol-5-amine] | 33 nM | 203 nM | – | –
CC(C)(C)OC(=O)NCc1cccc(CN2CCC[C@@H](Nc3ccc4[nH]ncc4c3)C2)c1 [Compound 1.140, (R)-tert-butyl 3-((3-(1H-indazol-5-ylamino)piperidin-1-yl)methyl)benzylcarbamate] | 32.9 nM | 236 nM | – | –
CCOC(=O)COc1cccc(CN2CCC[C@@H](Nc3ccc4[nH]ncc4c3)C2)c1 [Compound 1.147, (R)-ethyl 2-(3-((3-(1H-indazol-5-ylamino)piperidin-1-yl)methyl)phenoxy)acetate] | 45.7 nM | 58.3 nM | – | –
